The subject of the data set is zebrafish. In words: PBTK parameter fitting (Nelder–Mead algorithm) to in vivo zebrafish data. The note with it: fitted on brain BPZ concentrations of current study; used for all bisphenols. Also noted: species or system zebrafish (Danio rerio).

The values that follow come from article PMC9301920, “Physiologically Based Toxicokinetic Modeling of Bisphenols in Zebrafish (Danio rerio) Accounting for Variations in Metabolic Rates, Brain Distribution, and Liver Accumulation” (Environmental Science & Technology, 2022).

Excerpt: Ovaries and eggs were assumed to receive the same blood flow. The equation for the egg compartment was described as follows using the diffusion-limited equation previously described by Thompson and Beard[51] [drawing 4] 4 where dAegg/dt represents the rate of change of bisphenol over time in the egg compartment, Agon and Aegg represent the amount of compound in the gonads and egg, respectively, Vgon and Vegg are the volumes of the gonads and eggs, respectively, and Pgon and Pegg are the partition coefficients of the gonads to blood and egg to gonads.
Parameter fitting was done in R using the modFit function in the FME package with the Nelder–Mead algorithm.[53]
279For fitting, the model was run using the exposure scenarios of each fitting data set.
280parameters were fixed as presented in Tables S10-S14 with exception of the parameter for
281which fitting was performed. The outcome evaluated by fitting algorithm was the concentration
282over time in the same tissue as the experimental data. Outcomes used for fitting to measured
283experimental data were: concentration in brain for brain-blood partition coefficient,
284concentration in liver for liver-blood partition coefficient, concentration in eggs for egg-gonad
285partition coefficient and whole-body metabolite concentration for Ke bile and KBG of metabolites.
286For the liver, brain and egg partitioning, the range was set between 0.01 and 500 and the Nelder-
287Mead algorithm was run with initial estimates at 1, 5, 10, 50 and 500 in order to assure a global
288minimum was found. The fitted values returning the lowest squared sum of residuals were used
The GI lumen to GI tract diffusion rate (K u)

As to `Oc1ccc(C2(c3ccc(O)cc3)CCCCC2)cc1` [BPZ, bisphenol Z], the “Pbb (brain to blood partition coefficient)” value is 0.42.
